{"source": "patent US20030219476A1", "about": "“Liposomal formulation of mitoxantrone” (priority 2000, published 2003)", "key": {"beagle dogs": {"tested_on": "beagle dogs", "experiment": "Repeated-dose i.v. toxicity in beagle dogs (Example 18)", "description": "Conventional mitoxantrone was administered to beagle dogs (3/sex/group) at i.v. dosages of 0 (saline), 0.129 or 0.258 mg/kg (2.6 or 5 mg/m^2) on Days 1, 23, 43 and 65. […] Evaluations for compound-related effects were based on clinical observations, body weight, food consumption, ophthalmologic and ECG examination, clinical pathology, plasma drug concentrations, organ weights and gross and microscopic postmortem examinations."}, "in vivo [1]": {"experiment": "in vivo", "conditions": "male, CD2F1, mouse, plasma, iv, 5 mg/kg", "description": "Plasma and tissue samples were analyzed for mitoxantrone by reverse phase HPLC. Plasma samples (0.25 ml) were mixed with 0.5 ml of solution of 0.01 mg/ml hexanesulfonic acid, 0.5 mg/ml ascorbic acid, and 0.25 μg ametantrone as internal standard. After vortexing for 30 sec., 0.5 ml of 0.1 M borate buffer (pH 9.5) and 150 μl of 1 M sodium hydroxide was added and the solution vortexed again for 30 sec. […] The organic layer (9 ml) was separated and evaporated under nitrogen. Samples were reconstituted with 10 μl of mobile phase prior to HPLC analysis. Tissue samples were homogenized in 1 ml of solution containing 20% ascorbic acid in 0.1 M citrate buffer, pH 3.0, and extracted as described above. Mitoxantrone was separated by reverse-phase chromatography (Waters μBondapak® C-18) using a mobile phase of 33% acetonitrile, and 67% 0.16 M ammonium formate buffer, pH 2.7 delivered at a flow rate of 1 ml/min. Mitoxantrone was detected at 600 nm. The limit of sensitivity was 10 ng/ml.\nPlasma Pharmacokinetic parameters were assessed by standard methods. The elimination rate constant (K) was calculated from the linear regression analysis of plasma concentration-time curve. The area under the curve (AUC0→∞) was calculated using the linear trapezoidal method with extrapolation of the terminal phase to infinity (Clast/K), where Clast is the last measured concentration. Other parameters calculated were total body clearance (Cl) as Dose/AUC; volume of distribution (Varea)=Cl/K; elimination half-life (t1/2)=0.693/Karea."}, "L1210 leukemia cells": {"tested_on": "L1210 leukemia cells", "experiment": "L1210 ascitic leukemia survival, single dose (Example 14)", "type": "in vivo, mice", "procedure": "Murine leukemia cells, L1210 leukemia cells were grown in the peritoneum of CD2F1 mice by three serial propagations (i.p.). Ascites developed within eight days of the last inoculation were used in the following experiments. Cytostatic activities of liposomal and conventional formulations of mitoxantrone against L1210 ascitic leukemia was determined. Animal group weights were determined three times a week and clinically morbid animals were humanely sacrificed. The surviving mice were observed daily for 60 days. Group survival times post i.v. treatment with single or multiple doses of the drug was indicative of the relative anti-tumor potencies of liposomal and conventional mitoxantrone.\nFemale CD2F1 mice were divided into eight groups of 10 animals and inoculated i.v. with 10,000 L1210 cells. Drug was administered twenty-four hours later. Conventional mitoxantrone was administered at doses of 5 and 10 mg/kg. […] Surviving animals were sacrificed on day 60 of the experiment. Blank liposomes equivalent to the 35, mg/kg dose and normal saline was also administered as controls."}, "male CD2F1 mice [2]": {"tested_on": "male CD2F1 mice", "description": "Eighty male CD2F1 mice weighing 20-22 g were acclimated for 1 week and randomly separated into 8 groups of ten animals each with 5 animals per cage. On day 0 all groups of animals were injected i.v. in the tail vein with the drug or vehicle control. The volumes administered were varied based on individual animal weights. Mouse weights were recorded for each mouse on alternate days following injection and observation for clinical illness were recorded at least daily."}, "male CD2F1 mice [3]": {"tested_on": "male CD2F1 mice", "remark": "listed apart in the source", "description": "Seventy male CD2F1 mice weighing 20-22 g were acclimated for 1 week and randomly separated into 7 groups of ten animals each with 5 animals per cage. On day 0 all groups of animals were injected i.v. in the tail vein with the drug or vehicle control. The volumes administered were varied based on individual animal weights. Mouse weights were recorded for each mouse on alternate days following injection and observation for clinical illness were recorded at least daily."}, "[4]": {"experiment": "Plasma pharmacokinetics in dogs (Example 17)", "description": "(§1) Time points analyzed were 0, 5 and 30 min and 1, 2, 4, 8 and 24 h after a single dose administration."}, "male CD2F1 mice [5]": {"tested_on": "male CD2F1 mice", "remark": "listed apart in the source", "description": "Forty male CD2F1 mice weighing 20-22 g were acclimated for 1 week and randomly separated into 8 groups of five animals each with 5 animals per cage. On day 0 all groups of animals were injected i.v. in the tail vein with the drug or vehicle control and once daily thereafter for a period of 5 days. The volumes administered were varied based on individual animal weights. Mouse weights were recorded for each mouse on alternate days following injection and observations of clinical illness were recorded at least daily."}, "male CD2F1 mice [6]": {"tested_on": "male CD2F1 mice", "remark": "listed apart in the source", "description": "Thirty male CD2F1 mice weighing 20-22 g were acclimated for 1 week and randomly separated into 6 groups of five animals each with 5 animals per cage. On day 0 all groups of animals were injected i.v. in the tail vein with the drug or vehicle control and once daily thereafter for a period of 5 days. The volumes administered were varied based on individual animal weights. Mouse weights were determined for each mouse on alternate days following injection and observation for clinical illness were recorded at least daily."}, "in vivo [7]": {"experiment": "in vivo", "conditions": "beagle, dog, plasma, iv, 0.26 mg/kg", "description": "as §1"}, "[8]": {"tested_on": "human hormone-refractory prostate tumor cells (PC-3)", "procedure": "Male Balb/c, nu/nu, 6-8 week old mice were inoculated with 5×10^6 of human hormone-refractory prostate tumor cells (PC-3). Tumor growth was monitored twice a week until the tumor volumes were in the range of […]. Animals were then divided into groups and were treated by i.v. injection via the tail vein with conventional mitoxantrone at doses of 0.625, 1.25, 2.5, and 5 mg/kg once every other day for four days. Doses of mitoxantrone formulated in liposomes were 2.5, 5, 7.5, and 10 mg/kg. Control animals received either normal saline or blank liposomes. The median survival time was calculated and all surviving animals were sacrificed on Day 34.\nIn these experiments tumor volumes were measured once or twice a week by measuring the three major axes."}, "male CD2F1 mice [9]": {"tested_on": "male CD2F1 mice", "conditions": "25 mg/kg single i.v.", "description": "Twenty male CD2F1 mice weighing 20-22 g were acclimated for 1 week and randomly separated into 4 groups of five animals each with 5 animals per cage. On day 0 all groups of animals were injected i.v. in the tail vein with the drug or vehicle control. The volumes administered were varied based on individual animal weights. Mouse weights were recorded for each mouse on alternate days following injection and observation for clinical illness were recorded at least daily."}, "[10]": {"conditions": "conventional 5 mg/kg, liposomal 10 mg/kg, daily x5"}}, "note": "Entries after “also recorded” stand apart in the source; their conditions may differ. Where a name gives a salt, the structure may show the parent alone. Read-outs that look alike come from different tables or passages of the source."}
{"compound": "O=C1c2c(O)ccc(O)c2C(=O)c2c(NCCNCCO)ccc(NCCNCCO)c21", "note": "[conventional mitoxantrone, mitoxantrone hydrochloride]", "values": [{"measurement": "hematology", "setting": "beagle dogs; 0.129 and 0.258 mg/kg, 4 to 10 days following each dose cycle, dose related", "value": "leukopenia and thrombocytopenia"}, {"measurement": "ECG parameters", "setting": "beagle dogs; any examination time", "value": "no changes in ECG parameters"}, {"measurement": "food consumption", "setting": "beagle dogs; any groups", "value": "no changes in food consumption"}, {"measurement": "coagulation or clinical chemistry parameters", "setting": "beagle dogs; any of the dosage groups", "value": "No changes"}, {"measurement": "anemia", "setting": "beagle dogs; conventional: all animals, liposomal: female dogs", "value": "Anemia did not occur"}, {"measurement": "body weight", "setting": "beagle dogs; conventional: males at 0.258 mg/kg, liposomal: all dose groups, Days 1, 23, 43, 65", "value": "lost weight"}, {"measurement": "AUC", "setting": "in vivo [1]", "value": 140, "unit": "ng·h/mL"}, {"measurement": "Cmax", "setting": "in vivo [1]", "value": 410, "unit": "ng/mL"}, {"measurement": "Vd", "setting": "in vivo [1]", "value": 5.5, "unit": "L/kg"}, {"measurement": "clearance", "setting": "in vivo [1]", "value": 600, "unit": "mL/min/kg"}, {"measurement": "half-life", "setting": "in vivo [1]", "value": 6.6, "unit": "min"}, {"measurement": "median survival", "setting": "L1210 leukemia cells; 5 mg/kg single i.v., 24 h after 10,000 L1210 cells i.v.", "value": 12, "unit": "days"}, {"measurement": "animals alive at day 60", "setting": "L1210 leukemia cells; 10 mg/kg single i.v.", "value": "2/10"}, {"measurement": "median survival time", "setting": "L1210 leukemia cells; 10 mg/kg single i.v.", "value": 20, "unit": "days"}, {"measurement": "weight loss", "setting": "male CD2F1 mice [2]; 10 mg/kg single i.v., by day 10, then gradual recovery", "value": 20, "unit": "%"}, {"measurement": "morbidity", "setting": "male CD2F1 mice [2]; 15 mg/kg single i.v. dose", "value": 100, "unit": "%"}, {"measurement": "weight loss", "setting": "male CD2F1 mice [2]; 15 mg/kg single i.v., by day 9/10", "value": "about 35%"}, {"measurement": "ALT", "setting": "male CD2F1 mice [2]; 15 mg/kg single i.v., day 10, hydrochloride", "value": "Clinically significant elevations in ALT; also recorded: significant increases in ALT"}, {"measurement": "BUN", "setting": "male CD2F1 mice [2]; 15 mg/kg single i.v., two mice", "value": "modest elevations in BUN"}, {"measurement": "histopathology", "setting": "male CD2F1 mice [2]; single i.v. dose, spleen and bone marrow", "value": "compound effects on hematopoietic and lymphoid tissues of the spleen and bone marrow"}, {"measurement": "body weight course (remaining groups)", "setting": "male CD2F1 mice [2]; single i.v., conventional 5 mg/kg, liposomal 5, 10, 15 mg/kg", "value": "gained weight steadily"}, {"measurement": "initial weight loss", "setting": "male CD2F1 mice [3]; 10 mg/kg single i.v., gradual recovery", "value": 13, "unit": "%"}, {"measurement": "morbidity", "setting": "male CD2F1 mice [3]; 25 mg/kg single i.v.", "value": 100, "unit": "%"}, {"measurement": "ALT activities", "setting": "male CD2F1 mice [3]; day 3, one mouse each: conventional 25 mg/kg, liposomal 35 mg/kg", "value": "modest increases in ALT activities"}, {"measurement": "V", "setting": "[4]; 0.26 mg/kg i.v., male dogs, mean", "value": 2.8, "unit": "L/kg"}, {"measurement": "time point at which plasma concentrations could not be measured", "setting": "[4]; high dose (0.26 mg/kg)", "value": 30, "unit": "min"}, {"measurement": "animals that died", "setting": "male CD2F1 mice [5]; 5 and 7.5 mg/kg daily x5", "value": "all of the animals"}, {"measurement": "progressive weight loss", "setting": "male CD2F1 mice [5]; 5 and 7.5 mg/kg daily x5, by day 7", "value": "about 25%"}, {"measurement": "hepatocellular vacuolar degeneration", "setting": "male CD2F1 mice [5]; 5 or 7.5 mg/kg daily x5, several mice", "value": "Some hepatocellular vacuolar degeneration"}, {"measurement": "leukopenia in moribund-sacrificed mice", "setting": "male CD2F1 mice [5]; conventional 5, 7.5 mg/kg, liposomal 7.5 mg/kg, daily x5", "value": "marked, clinically significant, compound related leukopenia"}, {"measurement": "clinical signs", "setting": "male CD2F1 mice [5]; day 6, conventional 2.5, 5, 7.5 mg/kg, liposomal 7.5 mg/kg, daily x5", "value": "ruffled fur and hunching behavior"}, {"measurement": "morbidity or mortality", "setting": "male CD2F1 mice [5]; liposomal any dose (2.5-7.5 mg/kg), conventional […], daily x5", "value": "no morbidity or mortality"}, {"measurement": "lethality (mice tested)", "setting": "male CD2F1 mice [6]; 5 mg/kg daily x5", "value": 100, "unit": "%"}, {"measurement": "progressive weight loss", "setting": "male CD2F1 mice [6]; 5 mg/kg daily x5, by day 9", "value": "about 35%"}, {"measurement": "acute liver injury (ALT, AST, bilirubin)", "setting": "male CD2F1 mice [6]; by day 8, conventional 5 mg/kg/day vs liposomal 10 mg/kg/day", "value": "roughly equivalent acute liver injury"}, {"measurement": "AST and ALT in moribund sacrificed animals", "setting": "male CD2F1 mice [6]; [10]", "value": "marked elevations in AST and ALT"}, {"measurement": "leukopenia in moribund animals", "setting": "male CD2F1 mice [6]; [10]", "value": "marked leukopenia"}, {"measurement": "mice with bilirubin concentration greater than in control mice", "setting": "male CD2F1 mice [6]; [10]", "value": "3 of the 4"}, {"measurement": "clinical signs", "setting": "male CD2F1 mice [6]; conventional 2.5, 5 mg/kg, liposomal 10 mg/kg, daily x5", "value": "ruffled fur and hunching behavior"}, {"measurement": "Cmax", "setting": "in vivo [7]; female", "value": 60, "unit": "ng/mL"}, {"measurement": "Cmax", "setting": "in vivo [7]; male", "value": 84, "unit": "ng/mL"}, {"measurement": "clearance", "setting": "in vivo [7]; male", "value": 89, "unit": "mL/min/kg"}, {"measurement": "half-life", "setting": "in vivo [7]; male", "value": 21.6, "unit": "min"}, {"measurement": "tissue concentration, kidneys", "setting": "5 mg/kg single i.v.", "value": "~40", "unit": "µg/g"}, {"measurement": "tissue concentration, lungs", "setting": "5 mg/kg single i.v.", "value": "approximately 20 μg/g"}, {"measurement": "heart tissue concentration", "setting": "5 mg/kg single i.v., 5 and 15 minutes", "value": "approximately 10 μg/g"}, {"measurement": "heart concentration (peak)", "setting": "5 mg/kg single i.v., 5 minutes", "value": 11, "unit": "µg/g"}, {"measurement": "liver concentration after gradual decrease", "setting": "5 mg/kg single i.v., end of time course", "value": "~2", "unit": "µg/g"}, {"measurement": "liver concentration, initial", "setting": "5 mg/kg single i.v., start of time course", "value": "approximately 19 μg/g"}, {"measurement": "heart, lung and kidney concentrations, comparison of formulations", "setting": "all time points, 5 mg/kg i.v.", "value": "higher"}, {"measurement": "survival by day 34", "setting": "[8]; 0.625 and 1.25 mg/kg i.v. once every other day", "value": 100, "unit": "%"}, {"measurement": "survival by day 34", "setting": "[8]; 2.5 and 5 mg/kg i.v. once every other day", "value": "no animals"}, {"measurement": "toxicity in tumor-bearing mice", "setting": "[8]; in vivo", "value": "Severe toxicity"}, {"measurement": "morbidity", "setting": "male CD2F1 mice [9]", "value": 100, "unit": "%"}]}
